How the values were obtained:
Plasmodium falciparum [1] = assay: Antiplasmodial activity against chloroquine-sensitive Plasmodium falciparum D6; assay type: functional, organism-based
Plasmodium falciparum [2] = assay: Antiplasmodial activity against chloroquine-resistant Plasmodium falciparum FCR3; assay type: functional, organism-based
Plasmodium falciparum [3] = assay: Antiplasmodial activity against chloroquine-sensitive Plasmodium falciparum IMT031; assay type: functional, organism-based
Plasmodium falciparum [4] = assay: Antiplasmodial activity against chloroquine-resistant Plasmodium falciparum Bre1; assay type: functional, organism-based
Plasmodium falciparum [5] = assay: Antiplasmodial activity against chloroquine-sensitive Plasmodium falciparum 3D7; assay type: functional, organism-based
Plasmodium falciparum [6] = assay: Antiplasmodial activity against chloroquine-resistant Plasmodium falciparum W2; assay type: functional, organism-based
L6 = assay: Toxicity against rat L6 cells assessed as induction of cell death at 100 uM; assay type: cell-based; conditions: l6, 100 µM

Compound	IC50 (Plasmodium falciparum [1]) [µM]	IC50 (Plasmodium falciparum [2]) [µM]	IC50 (Plasmodium falciparum [3]) [µM]	IC50 (Plasmodium falciparum [4]; Plasmodium falciparum, Bre1) [µM]	IC50 (Plasmodium falciparum [5]) [µM]	IC50 (Plasmodium falciparum [6]; Plasmodium falciparum, W2) [µM]	Activity (L6) [%]	IC50 (Plasmodium falciparum [6]) [µM]	IC50 (Plasmodium falciparum [4]) [µM]	IC90 (Plasmodium falciparum [1]) [µM]	IC90 (Plasmodium falciparum [2]) [µM]	IC90 (Plasmodium falciparum [3]) [µM]	IC90 (Plasmodium falciparum [4]; Plasmodium falciparum, Bre1) [µM]	IC90 (Plasmodium falciparum [5]) [µM]	IC90 (Plasmodium falciparum [6]; Plasmodium falciparum, W2) [µM]
CC[C@H](C)C(=O)O[C@H]1C[C@H](O)C=C2C=C[C@H](C)[C@H](CC[C@@H](O)C[C@@H](O)CC(=O)O)[C@H]21 [PRAVASTATIN SODIUM]	> 200	> 200	> 200	> 200	> 200	> 200	–	–	–	–	–	–	–	–	–
CC[C@H](C)C(=O)O[C@H]1C[C@@H](C)C=C2C=C[C@H](C)[C@H](CC[C@@H]3C[C@@H](O)CC(=O)O3)[C@H]21 [LOVASTATIN]	> 200	> 200	> 200	> 200	> 200	> 200	–	–	–	–	–	–	–	–	–
CCC(C)(C)C(=O)O[C@H]1C[C@@H](C)C=C2C=C[C@H](C)[C@H](CC[C@@H]3C[C@@H](O)CC(=O)O3)[C@H]21 [SIMVASTATIN]	> 200	> 200	> 200	> 200	> 200	> 200	–	–	–	–	–	–	–	–	–
CC[C@H](C)C(=O)O[C@H]1C[C@@H](C)C=C2C=C[C@H](C)[C@H](CC[C@@H](O)C[C@@H](O)CC(=O)O)[C@H]21	44.3	43.9	57.8	52.6	95.3	103	–	–	–	–	–	–	–	–	–
CC(C)c1c(C(=O)Nc2ccccc2)c(-c2ccccc2)c(-c2ccc(F)cc2)n1CC[C@@H](O)C[C@@H](O)CC(=O)O [ATORVASTATIN]	–	–	–	–	–	–	27	–	–	–	–	–	–	–	–
CC(C)n1c(/C=C/C(O)CC(O)CC(=O)O)c(-c2ccc(F)cc2)c2ccccc21 (stereo not drawn) [FLUVASTATIN SODIUM]	92.3	116	87.1	92.5	108	90.2	–	–	–	–	–	–	–	–	–
CCC(C)(C)C(=O)O[C@H]1C[C@@H](C)C=C2C=C[C@H](C)[C@H](CC[C@@H](O)C[C@@H](O)CC(=O)O)[C@H]21	51.3	76.7	36.9	48.4	69.8	58.9	–	–	–	–	–	–	–	–	–
CC[C@H](C)C(=O)O[C@H]1CCC=C2C=C[C@H](C)[C@H](CC[C@@H](O)C[C@@H](O)CC(=O)O)[C@H]21 [listing 1 of 2 here]	> 200	> 200	> 200	> 200	> 200	–	–	88.5	–	–	–	–	–	–	–
CC[C@H](C)C(=O)O[C@H]1CCC=C2C=C[C@H](C)[C@H](CC[C@@H](O)C[C@@H](O)CC(=O)O)[C@H]21 [listing 2 of 2 here]	–	–	–	–	–	–	–	> 200	102	–	–	–	–	–	–
CC(C)c1c(C(=O)Nc2ccccc2)c(-c2ccccc2)c(-c2ccc(F)cc2)n1CC[C@@H](O)C[C@@H](O)CC(=O)O [ATORVASTATIN CALCIUM]	5.8	5.1	5.3	5.8	11.8	4.8	–	–	–	18.1	23.6	15.8	24	39	14.8
CC[C@H](C)C(=O)O[C@H]1CCC=C2C=C[C@H](C)[C@H](CC[C@@H]3C[C@@H](O)CC(=O)O3)[C@H]21 [MEVASTATIN]	> 200	> 200	> 200	> 200	> 200	> 200	–	–	–	–	–	–	–	–	–

Reference: ChEMBL document CHEMBL1157377, “Atorvastatin is 10-fold more active in vitro than other statins against Plasmodium falciparum” (Antimicrob Agents Chemother, 2007)
